Our source for the EC50 values is patent US11390616B2 (BRISTOL-MYERS SQUIBB COMPANY, priority 2015, dated 2022).

Read-outs that look alike come from different tables or passages of the source.

The target of this experiment is T1, human APJ receptor (Homo sapiens, UniProt P35414).
T1 construct: expressed in transfected cells; host or cells: HEK293
T1 sequence (P35414 1-380): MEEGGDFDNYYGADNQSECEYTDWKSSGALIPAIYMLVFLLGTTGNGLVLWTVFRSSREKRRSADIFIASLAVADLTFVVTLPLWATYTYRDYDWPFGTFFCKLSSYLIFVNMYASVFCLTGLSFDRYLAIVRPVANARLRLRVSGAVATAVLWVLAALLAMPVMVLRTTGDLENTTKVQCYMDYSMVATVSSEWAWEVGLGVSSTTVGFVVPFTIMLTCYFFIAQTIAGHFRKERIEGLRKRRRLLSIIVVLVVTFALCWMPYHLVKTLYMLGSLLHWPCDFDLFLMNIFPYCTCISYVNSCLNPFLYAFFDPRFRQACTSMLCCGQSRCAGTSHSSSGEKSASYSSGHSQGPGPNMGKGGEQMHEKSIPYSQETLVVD
Briefly: Intracellular cAMP accumulation assay (APJ hcAMP, HTRF). As to conditions: HEK293 cells stably expressing human APJ receptor, inhibition of forskolin-mediated cAMP production. In kind it is cell-based. As to the method:
Intracellular cAMP Accumulation Assay
HEK293 cells stably expressing human APJ receptor were used to assess the activity of compounds. Cultured cells were detached and resuspended in the cAMP Homogeneous Time-Resolved Fluorescence (HTRF) assay buffer (Cisbio cat; #62AM4PEJ). The assay was performed in 384-well assay plates (Perkin-Elmer; cat #6008289) according to assay protocol provided by the manufacturer. Serial dilutions of a compound together with assay buffer containing […] IBMX and 2 μM forskolin were added to each well containing 5,000 cells and incubated for 30 minutes at room temperature. Subsequently, cAMP D2 reagent was added in the lysis buffer followed by the EuK antibody (Cisbio; cat #62AM4PEJ) and incubated for 60 min. The fluorescence emission ratio was measured using fluorometer. The intracellular cAMP concentrations (compound-stimulated inhibition of forskolin-mediated cAMP production) were calculated by extrapolation from a standard curve using known cAMP concentrations. The EC50 values were obtained by fitting the data to a sigmoidal concentration-response curve with variable slope. The maximal achievable inhibition of forskolin-induced cAMP levels (Ymax) for each compound was expressed as relative percentage of inhibition attained using pyroglutamated apelin-13 ((Pyr1)apelin-13) peptide, which was set to 100%.
The examples disclosed below were tested in the APJ in vitro assays described above and were found having human APJ cyclic AMP (hcAMP) activity. The EC50 value of each compound is presented at the end of the example description.
The biological activity of the exemplified compounds of this invention determined by the assay described above is shown at the end of each example.

The mark [1] stands for this setting: read-out: Human APJ cAMP EC50 potency range.
The mark [2] stands for this setting: read-out: APJ cAMP Potency range.

`CCc1cccc(CC)c1-n1c(-c2ccn(C3CC3)n2)nc(=O)c(Cc2ccc(-c3ccnc(F)c3C)c(F)c2)c1O` [Example 61, 2-(1-cyclopropyl-1H-pyrazol-3-yl)-1-(2,6-diethylphenyl)-5-(3-fluoro-4-(2-fluoro-3-methylpyridin-4-yl)benzyl)-6-hydroxypyrimidin-4(1H)-one]: the EC50 under setting [1] lay within 0.01 to 10 nM.
On to `CCc1cccc(CC)c1-n1c(-c2ccn(C)n2)nc(=O)c(Cc2ccc(-c3cccn(C)c3=O)cc2F)c1O` [Example 88, 1-(2,6-diethylphenyl)-5-{[2-fluoro-4-(1-methyl-2-oxo-1,2-dihydropyridin-3-yl)phenyl]methyl}-6-hydroxy-2-(1-methyl-1H-pyrazol-3-yl)-1,4-dihydropyrimidin-4-one], for which the EC50 under setting [2] was 0.01 to 10 nM.
The same measure, in the same setting: the figure for `COc1cccc(OC)c1-n1c(CCC(C)C)nc(O)c(Cc2nnc(-c3ccc(C)cc3)o2)c1=O` [Example 21, 3-(2,6-dimethoxyphenyl)-6-hydroxy-2-(3-methylbutyl)-5-{[5-(4-methylphenyl)-1,3,4-oxadiazol-2-yl]methyl}-3,4-dihydropyrimidin-4-one] is 10 to 100 nM; for `CCOCc1nc(=O)c(Cc2ccc(-c3ccc(F)nc3)cc2)c(O)n1[C@@H](COC)c1cc(F)cc(F)c1` [Example 125, 1-[(1R)-1-(3,5-difluorophenyl)-2-methoxyethyl]-2-(ethoxymethyl)-5-{[4-(6-fluoropyridin-3-yl)phenyl]methyl}-6-hydroxy-1,4-dihydropyrimidin-4-one] it is 10 to 100 nM.
On the same count and under the same terms, with `CCc1cccc(CC)c1-n1c(-c2ccn(C3CC3)n2)nc(=O)c(Cc2ccc(-c3cccn(C)c3=O)c(F)c2)c1O` [Example 93, 2-(1-cyclopropyl-1H-pyrazol-3-yl)-1-(2,6-diethylphenyl)-5-{[3-fluoro-4-(1-methyl-2-oxo-1,2-dihydropyridin-3-yl)phenyl]methyl}-6-hydroxy-1,4-dihydropyrimidin-4-one] the figure was 0.01 to 10 nM; with `COc1cccc(OC)c1-n1c(CCC(C)C)nc(O)c(Cc2ccc(-n3cc(F)ccc3=O)cc2)c1=O` [Example 52, 3-(2,6-dimethoxyphenyl)-5-{[4-(5-fluoro-2-oxo-1,2-dihydropyridin-1-yl)phenyl]methyl}-6-hydroxy-2-(3-methylbutyl)-3,4-dihydropyrimidin-4-one], 0.01 to 10 nM.
Same read-out and setting: the figure for `CCCCc1nc(O)c(Cc2ccn(-c3ccc(Cl)cc3)n2)c(=O)n1-c1c(OC)cccc1OC` [Example 24, 2-butyl-5-{[1-(4-chlorophenyl)-1H-pyrazol-3-yl]methyl}-3-(2,6-dimethoxyphenyl)-6-hydroxy-3,4-dihydropyrimidin-4-one] is 0.01 to 10 nM; for `CCCCc1nc(O)c(Cc2ccc(-c3ccccc3)cc2)c(=O)n1-c1c(OC)cccc1OC` [Example 45, 5-({[1,1′-biphenyl]-4-yl}methyl)-2-butyl-3-(2,6-dimethoxyphenyl)-6-hydroxy-3,4-dihydropyrimidin-4-one] it is 0.01 to 10 nM; for `CC(C)OCc1nc(=O)c(Cc2ccc(-c3ccc(F)cc3C(N)=O)cc2)c(O)n1[C@H](c1cc(F)cc(F)c1)C(C)C` [Example 116, 4′-({1-[(1S)-1-(3,5-difluorophenyl)-2-methylpropyl]-6-hydroxy-4-oxo-2-[(propan-2-yloxy)methyl]-1,4-dihydropyrimidin-5-yl}methyl)-4-fluoro-[1,1′-biphenyl]-2-carboxamide] it is 0.01 to 10 nM.
Turning to `CCCCc1nc(=O)c(Cc2ccc(-c3ccncc3C)cc2)c(O)n1[C@@H](CC)c1cccc(F)c1` [Example 106, 2-butyl-1-[(1S)-1-(3-fluorophenyl)propyl]-6-hydroxy-5-{[4-(3-methylpyridin-4-yl)phenyl]methyl}-1,4-dihydropyrimidin-4-one], the EC50 under setting [2] was 0.01 to 10 nM.
Consider `CCCCc1nc(=O)c(Cc2ccc(-c3cccnc3C)cc2)c(O)n1[C@@H](CC)c1cccc(F)c1` [Example 105, 2-butyl-1-[(1S)-1-(3-fluorophenyl)propyl]-6-hydroxy-5-{[4-(2-methylpyridin-3-yl)phenyl]methyl}-1,4-dihydropyrimidin-4-one], for which the EC50 under setting [2] was in the range of 0.01 to 10 nM.
Still for that read-out and setting: with `CCCCc1nc(=O)c(Cc2ccc(-c3ccccc3)cc2)c(O)n1-c1c(CC)cccc1CC` [Example 68, 5-({[1,1′-biphenyl]-4-yl}methyl)-2-butyl-1-(2,6-diethylphenyl)-6-hydroxy-1,4-dihydropyrimidin-4-one] the figure was 10 to 100 nM; with `CCCCc1nc(O)c(Cc2ccc(-n3cc(Cl)ccc3=O)cc2)c(=O)n1-c1c(OC)cccc1OC` [Example 49, 2-butyl-5-{[4-(5-chloro-2-oxo-1,2-dihydropyridin-1-yl)phenyl]methyl}-3-(2,6-dimethoxyphenyl)-6-hydroxy-3,4-dihydropyrimidin-4-one], 0.01 to 10 nM.
As to `CCCCc1nc(=O)c(Cc2ccc(Br)cc2)c(O)n1[C@@H](CC)c1cccc(C#N)c1` [Compound 95i, (S)-3-(1-(5-(4-bromobenzyl)-2-butyl-6-hydroxy-4-oxopyrimidin-1(4H)-yl)propyl)benzonitrile], the EC50 under setting [1] is 10 to 100 nM.
With `COc1cccc(OC)c1-n1c(C2CCCC2)nc(O)c(Cc2ccc(-n3ccccc3=O)cc2)c1=O` [Example 38, 2-cyclopentyl-3-(2,6-dimethoxyphenyl)-6-hydroxy-5-{[4-(2-oxo-1,2-dihydropyridin-1-yl)phenyl]methyl}-3,4-dihydropyrimidin-4-one], the EC50 under setting [2] lay within 0.01 to 10 nM.
On to `CC[C@@H](c1cc(F)cc(F)c1)n1c(CCC2CC2)nc(=O)c(Cc2ccc(-c3ccncc3C)cc2)c1O` [Example 110, 2-(2-cyclopropylethyl)-1-[(1S)-1-(3,5-difluorophenyl)propyl]-6-hydroxy-5-{[4-(3-methylpyridin-4-yl)phenyl]methyl}-1,4-dihydropyrimidin-4-one], for which the EC50 under setting [2] lay in the range of 0.01 to 10 nM.
The same measure, in the same setting: the figure for `CCOCc1nc(=O)c(Cc2ccc(-c3ccncc3C)cc2)c(O)n1[C@@H](COC)c1cc(F)cc(F)c1` [Example 122, 1-[(1R)-1-(3,5-difluorophenyl)-2-methoxyethyl]-2-(ethoxymethyl)-6-hydroxy-5-{[4-(3-methylpyridin-4-yl)phenyl]methyl}-1,4-dihydropyrimidin-4-one] is 0.01 to 10 nM; for `CC[C@@H](c1cc(F)cc(F)c1)n1c(-c2ccn(CC)n2)nc(=O)c(Cc2ccc(-c3ccnc(F)c3C)cc2)c1O` [Example 132, 1-[(1S)-1-(3,5-difluorophenyl)propyl]-2-(1-ethyl-1H-pyrazol-3-yl)-5-{[4-(2-fluoro-3-methylpyridin-4-yl)phenyl]methyl}-6-hydroxy-1,4-dihydropyrimidin-4-one] it is 0.01 to 10 nM; for `CCOCc1nc(O)c(Cc2ccc(-c3ncon3)cc2)c(=O)n1-c1c(OC)cccc1OC` [Example 32, 3-(2,6-dimethoxyphenyl)-2-(ethoxymethyl)-6-hydroxy-5-{[4-(1,2,4-oxadiazol-3-yl)phenyl]methyl}-3,4-dihydropyrimidin-4-one] it is 10 to 100 nM.
Consider `CCCCc1nc(=O)c(Cc2ccc(-c3ccnc(F)c3C)cc2)c(O)n1[C@@H](CC)c1cccc(C#N)c1` [Example 99, 3-[(1S)-1-(2-butyl-5-{[4-(2-fluoro-3-methylpyridin-4-yl)phenyl]methyl}-6-hydroxy-4-oxo-1,4-dihydropyrimidin-1-yl)propyl]benzonitrile], for which, under setting [2], the EC50 lay in the range of 0.01 to 10 nM.
